Data as given in patent US8679832B2, “Detection of protein translocation by beta-galactosidase reporter fragment complementation” (The Board of Trustees of the Leland Stanford Junior …, priority 2004, dated 2014).
Where two headings read alike, the source gives them in different places.

Legend:
C1A domain from PKCγ = target: T1, C1A domain from PKCγ (Homo sapiens, UniProt P05129); experiment: Plasma membrane translocation assay: C1A domain of PKCγ fused to GFP-α mutants, tEGFR-ω in NIH 3T3 cells, β-galactosidase complementation; assay type: cell-based
T1 construct: the C1A domain from PKCγ was fused to four of the GFP-α point mutants; β-galactosidase α peptide carrying H31R, E41Q, N39D or N39Q (β-gal numbering; the mutation lies in the tag, not in PKCγ); expressed in transfected cells; host or cells: NIH 3T3 cells expressing tEGFR-ω
From the text: Creation of a plasma membrane translocation assay required expression of the ω fragment at the membrane which was achieved using the tEGFR-ω construct. When the target protein-α fusion move from the cytosol to the membrane, the local increased concentration of a peptide should drive complementation as illustrated in FIG. 4B. To determine which of the mutants would work best in this type of assay the C1A domain from PKCγ was fused to four of the GFP-α point mutants that complemented to varying degrees, H31R, E41Q, N39D, and N39Q. […] The ω fragment was tethered to the plasma membrane using the extracellular and transmembrane regions of the EGFR. Four of the mutants were fused to the C1A domain of PKCγ and co-expressed with the tEGFR. Their responses to 1 μM PMA for 20 min were expressed as a fold induction over background. The C1A domain efficiently translocated to the plasma membrane when exposed to phorbol esters such as PMA (FIG. 4C). The fusion proteins were expressed in NIH 3T3 cells expressing the tEGFR-ω, and assayed for increased complementation in the presence of PMA for 30 min.
The translocation of the C1A domain in response to PMA stimulation has been extensively characterized by fusion to GFP. The largest increase in fluorescence at the plasma membrane in response to PMA was reported to be 70% with the lowest dose of PMA detected using these methods being between 10 and 100 nM. […] Importantly, the requirement of the co fragment for complementation ensured that enzyme activity was only generated where the co-fragment was localized. Thus, the assay measured increases in protein concentration at a specific location in the cell.

C1A domain = target: T2, C1A domain (Homo sapiens, UniProt P05129); conditions: C1A-GFP, response to PMA, reported; cited from earlier work
T2 construct: The translocation of the C1A domain in response to PMA stimulation has been extensively characterized by fusion to GFP

glucocorticoid receptor = glucocorticoid receptor (Homo sapiens, UniProt P04150); conditions: 30 min of treatment
From the text: To test the applicability of the system to a physiological translocation event the glucocoticoid receptor was fused to the amino-terminus of the GFP-α fusion. The glucocoticoid receptor is a nuclear steroid hormone receptor that undergoes a robust nuclear translocation in response to treatment with various hormones including dexamethasone. This construct was stably introduced into both the co-NLS and tEGFR-ω cell lines then assayed for changes in β-galactosidase activity upon treatment of the cells with dexamethasone using the luminescent β-galactosidase substrate.
Cell lines shown in FIG. 3 A were treated with varying concentrations of dexamethasone and assayed over time. […] The GR-α cell lines were treated with 1 μM dexamethasone (red) for 3 hours then stained with the luorescent β-galactosidase DDAO substrate and analyzed by low cytometry.

[1] = test system: Crm1 mediated nuclear export; experiment: Nuclear translocation gain of signal assay: NES-GFP-α-NLS co-expressed with ω-NLS, β-galactosidase complementation, luminescent substrate; assay type: cell-based, mouse; conditions: leptomycin B for 2 hours, C2C12 myoblasts
From the text: In order to utilize a complementation as a method of quantitatively assessing nuclear translocation events, two systems were designed that are distinct in the localization of the ω-fragment. FIG. 2A is a schematic showing the design of the nuclear translocation assay. In the let panel, the ω fragment is localized to the nucleus with a nuclear localization signal (NLS) and the cytosolic protein of interest is fused to the minimal α peptide. Upon stimulation the α fusion moves to the nucleus and complements the co, increasing β-galactosidase activity. In the right panel, the co fragment is tethered to the plasma membrane using the extracellular and transmembrane regions of EGFR. The cytosolic α-fusion complements spontaneously until stimulation when it translocates to the nucleus which results in a loss of enzyme activity.
The gain of signal assay (FIG. 2A left panel) localized the ω to the nucleus through fusion to a triplet SV40 nuclear localization signal (NLS). Thus, an increase in β-galactosidase activity should be observed when the target protein-α fusion moves from the cytosol to the nucleus. The loss of signal assay (FIG. 2 A right panel) localized the ω-fragment to the plasma membrane through fusion to the extracellular and transmembrane regions of the EGF receptor (tEGFR). […]

PH domain of AKT = experiment: AKT PH domain plasma membrane translocation: AKT-GFP-α in 3T3 fibroblasts with tEGFR-ω, luminescent β-galactosidase assay, 96-well; assay type: cell-based; conditions: 50 ng/ml PDGF, insulin, or sorbitol; 3T3 cells; maximal over time course
Description: To test whether the system was robust enough to monitor translocation events in response to physiologically relevant stimuli, this system was applied to the translocation of the PH domain of AKT. […] The PH domain of AKT was fused to the GFP-α chimera and expressed in 3T3 fibroblasts harboring the tEGFR-ω protein. […] The cells were stimulated under various conditions, and the translocation of the PH domain was assayed in 96-well dishes by a luminescent measure of β-galactosidase activity.

Sequence of glucocorticoid receptor (P04150 whole entry, species assumed, the tested form may be a part): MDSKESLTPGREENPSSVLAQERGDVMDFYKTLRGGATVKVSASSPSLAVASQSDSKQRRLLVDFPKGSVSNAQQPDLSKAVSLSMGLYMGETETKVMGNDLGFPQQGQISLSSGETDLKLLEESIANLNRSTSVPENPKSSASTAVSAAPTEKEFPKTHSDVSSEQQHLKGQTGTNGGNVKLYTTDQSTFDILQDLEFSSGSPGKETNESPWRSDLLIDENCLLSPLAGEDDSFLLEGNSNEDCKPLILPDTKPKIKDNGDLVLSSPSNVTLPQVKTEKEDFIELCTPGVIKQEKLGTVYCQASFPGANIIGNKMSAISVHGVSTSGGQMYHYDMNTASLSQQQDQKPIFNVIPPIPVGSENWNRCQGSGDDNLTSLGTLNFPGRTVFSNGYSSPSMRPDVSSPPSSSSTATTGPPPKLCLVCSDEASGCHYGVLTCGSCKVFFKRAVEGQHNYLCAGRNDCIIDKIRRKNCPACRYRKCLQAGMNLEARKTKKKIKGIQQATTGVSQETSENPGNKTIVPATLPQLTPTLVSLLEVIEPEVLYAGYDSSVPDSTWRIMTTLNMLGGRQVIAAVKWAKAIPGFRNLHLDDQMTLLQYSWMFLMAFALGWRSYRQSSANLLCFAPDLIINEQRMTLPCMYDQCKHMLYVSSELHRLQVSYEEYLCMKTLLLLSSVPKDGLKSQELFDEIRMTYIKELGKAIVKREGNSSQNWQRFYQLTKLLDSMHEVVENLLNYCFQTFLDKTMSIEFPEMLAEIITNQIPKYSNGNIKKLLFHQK

Compound: CCCCCCCCCCCCCC(=O)O[C@@H]1[C@@H](C)[C@@]2(O)[C@@H](C=C(CO)C[C@]3(O)C(=O)C(C)=C[C@@H]23)[C@@H]2C(C)(C)[C@]12OC(C)=O [PMA]
- increase in signal (C1A domain from PKCγ; 800 nM PMA (saturating)): 1000%
- saturating PMA concentration (C1A domain from PKCγ; C1A domain membrane translocation assay): 800 nM
- increases in enzyme activity in the presence of PMA (C1A domain from PKCγ; β-galactosidase complementation, H31R): 700-1000%
- largest increase in fluorescence at the plasma membrane (C1A domain): 70%

Compound: C[C@@H]1C[C@H]2[C@@H]3CCC4=CC(=O)C=C[C@]4(C)[C@@]3(F)[C@@H](O)C[C@]2(C)[C@@]1(O)C(=O)CO [dexamethasone]
- difference in β-galactosidase activity (glucocorticoid receptor; gain of signal): 100%
- difference in β-galactosidase activity (glucocorticoid receptor; loss of signal): 25%

Compound: CCC(=C/[C@H](C)C/C=C/C(C)=C/[C@@H](C)C(=O)[C@@H](C)[C@H](O)[C@@H](C)C/C(C)=C/C(=O)O)/C=C/[C@@H]1OC(=O)C=C[C@@H]1C [leptomycin B]
- increase in β-galactosidase activity [1]: 3.5 fold

Compound: OC[C@@H](O)[C@@H](O)[C@H](O)[C@@H](O)CO [sorbitol]
- increase in β-galactosidase activity (PH domain of AKT): 8 fold

Compound: H31R: α peptide of β-galactosidase with H31R mutation, low affinity (MGVITDSLAVVLQRRDWENPGVTQLNRLAARPPFASWRNSEEARTDRPSQQL; E. coli; PEPTIDE (1)..(52) alpha peptide (H31R))
- induction of β-galactosidase activity in the presence of PMA (C1A domain from PKCγ; C1A-GFP-α mutant, 1 μM PMA, NIH 3T3 tEGFR-ω): 7 fold

Compound: platelet-derived growth factor [PDGF]
- increase in β-galactosidase activity (PH domain of AKT): 5 fold

Compound: wt peptide: wild type α peptide of β-galactosidase (MGVITDSLAVVLQRRDWENPGVTQLNRLAAHPPFASWRNSEEARTDRPSQQL; E. coli; PEPTIDE (1)..(52) alpha peptide (wildtype))
- increase in β-galactosidase activity in the presence of PMA (C1A domain from PKCγ; C1A-GFP-α wt peptide, PMA, NIH 3T3 tEGFR-ω): < 10%
